The values below come from patent US20100040568A1, “Steroidal compounds as melanogenesis modifiers and uses thereof” (SkinMedica, Inc., priority 2008, published 2010).

In data set [1] the test system is Microphthalmia transcription factor (MITF). The experiment in a line: Level of microphthalmia transcription factor in melan-a cells. It counts as cell-based, murine. The method, then: Melan-a cells were incubated with various concentrations of conessine for 72 hours. Cell lysates were prepared and separated by 7.5% sodium dodecyl sulfate-polyacrylamide gel and transferred to Immobilon-P membranes. Tyrosinase gene family proteins were detected with antibodies against each protein. […] Microphthalmia transcription factor (MITF) is a transcription factor that regulates the expression of tyrosinase gene family. […] Thus, increased levels of tyrosinase gene family proteins with conessine treatment are not due to increased MITF expression in melan-a cells.

For a further data set, the system named is MEL-A. Description: MTT cell viability of treated MelanoDerm tissue. The following applies: 0.036% topical. It counts as cell-based, human. The method, then:
Conessine and Licorice extract were dissolved in 30% ethanol: 70% propylene glycol (PEG) to a final concentration of 0.036% (0.36 mg/ml). A 25 μl aliquot of each compound was applied topically to the Asian MelanoDerm™ tissue (MEL-A) on Days 0, 1, 3, 6, 8, 10 and 13. The MelanoDerm™ tissues were fed every other day with 5 ml fresh NMM-113. Prior to each application, the tissues were washed with 1 ml PBS to remove any residual test compound. Tissues were fixed on Days 13 and 16 for microscopic analysis and histological evaluation. In addition, duplicate tissues were frozen on Days 13 and 16 for melanin assay. 30% ethanol: 70% PEG was used as negative control. Cell viability was measured in accordance with the manufacturer's instructions using the MTT assay kit (MatTek Corp., Ashland, Mass. 01721). One MEL-A tissue from each condition was harvested on day 2 and 7, and MTT assay was performed.

Take `CC1C2CCC3C4CC=C5CC(N(C)C)CCC5(C)C4CCC32CN1C` (centres unmarked) [Compound 1, Conessine]: the “level of MITF” value in data set [1] is given as “no notable effect”. Further, in the data set with MEL-A, the “cytotoxicity of treated tissue” value is “no detectable cytotoxicity”.
